The structures appear in SMILES notation. Read-outs that look alike come from different tables or passages of the source.

These results are taken from US8846696B2, “Purine derivatives” (Cyclacel Limited, priority 2002, dated 2014).

One data set has as its target CDK2/cyclin E (Homo sapiens (Human), UniProt P24941). The experiment in a line: Kinase assay CDK2/cyclin E. In kind it is biochemical. The settings on record: for IC50: read-out: Kinase inhibition CDK2/cyclin E IC50; for A × B: comparative in vitro efficacy; for B: IC50 CDK2 roscovitine/IC50 CDK2 compound: ratio to roscovitine.
The next data set concerns the target CDK7/cyclin H (Homo sapiens (Human), UniProt P50613). The experiment in a line: Kinase assay CDK7/cyclin H. The data set is classed as biochemical. The settings on record: read-out: Kinase inhibition CDK7/cyclin H IC50.
Data set [1] deals with Human tumour cell lines: A549, HT29, Saos-2. The experiment in a line: 72-h MTT cytotoxicity assay, tumour cell lines A549, HT29, Saos-2. In kind it is cell-based. The settings on record: for IC50: 72 h, read-out: In vitro anti-proliferative activity (72-h MTT IC50), Human tumour cell lines: A549, HT29, Saos-2; for C: IC50 cytotox. roscovitine/IC50 cytotox. compound: ratio to roscovitine. On the procedure: (§1) In short: cells were seeded into 96-well plates according to doubling time and incubated overnight at 37° C. Test compounds were made up in DMSO and a ⅓ dilution series prepared in 100 μL cell media, added to cells (in triplicates) and incubated for 72 ho at 37° C. MTT was made up as a stock of 5 mg/mL in cell media and filter-sterilised. Media was removed from cells followed by a wash with 200 μL PBS. MTT solution was then added at 20 μL per well and incubated in the dark at 37° C. for 4 h. MTT solution was removed and cells again washed with 200 μL PBS. MTT dye was solubilised with 200 μL per well of DMSO with agitation.
For orientation: Tetrazolium assays rely on reduction of a dye to a coloured formazan, in cell work by metabolically active cells.

Data set [2] concerns the target cyclic AMP-dependent kinase (PKA) catalytic subunit (Homo sapiens (Human), UniProt P17612). In words: Kinase assay PKA. The settings on record: read-out: Kinase inhibition PKA IC50.
Experimental: (§3) Recombinant cyclin D1 was expressed in E. coli. […] Reactions were stopped on ice, followed by filtration through p81 filterplates or GF/C filterplates (for CDK4) (Whatman Polyfiltronics, Kent, UK), except for CDK7 where, after stopping reaction on ice, 10 μL of 10 mg/mL avidin was added to each well and further incubated for 10 min followed by filtration as per CDK2 assay. After washing 3 times with 75 mM aq orthophosphoric acid, plates were dried, scintillant added and incorporated radioactivity measured in a scintillation counter (TopCount, Packard Instruments, Pangbourne, Berks, UK). Compounds for kinase assay were made up as 10 mM stocks in DMSO and diluted into 10% DMSO in assay buffer.
A further data set has as its target ERK-2 (Homo sapiens (Human), UniProt P28482). The experiment in a line: Kinase assay ERK-2. The settings on record: read-out: Kinase inhibition ERK2 IC50.
The next data set addresses CDK4/cyclin D1 (Homo sapiens (Human), UniProt P11802). To be noted: read-out: Kinase inhibition CDK4/cyclin D1 IC50.
For another data set, the target named is CDK1/cyclin B (Homo sapiens (Human), UniProt P06493). In words: Kinase assay CDK1/cyclin B. In kind it is biochemical. The settings on record: read-out: Kinase inhibition CDK1/cyclin B IC50.
For data set [3] the following is noted: 10 μM.
Experimental: (§4) Calibration curves were prepared at 0, 1, and 10 μM in microsomes pre-incubated for 30 min and these were also treated with methanol containing olomoucine. All samples were then centrifuged and the supernatants analysed by liquid chromatography-mass spectrometry.
(§5) The chromatography column was a Supelco LC-ABZ, 50×4.6 mm, 5 μm zwitterionic column (Supelco Inc., Supelco Park, Bellefonte, Pa., USA). Gradient eluants consisted of methanol (A) and 0.1% formic acid in water (B). […] The flow rate was 1 mL/min throughout. […] Eluant from the detector passed, without splitting, into a Thernoquest LCQ ion trap mass spectrometer fitted with an electrospray source operated in positive mode. Mass spectrometer conditions were sheath gas 80, auxiliary gas 20 (both arbitrary units), capillary voltage 4 to 4.5 kV and heated capillary temperature 250 to 280° C. The mass range was 50-750. Scan time was controlled by the ion trap which was set to a maximum ion injection time of 200 ms or the time required to inject 2×10^8 ions; for each scan the system automatically used whichever time was reached first.
(§6) The peak area ration (test compound/internal standard) of the test incubation was then compared with the peak area ratios obtained fro the calibration curve of the test compound. From these values the concentration of test compound remaining after 30 min microsomal protein incubation was determined.
The next data set has as its system HeLa. In words: 72-h MTT assay HeLa. In kind it is cell-based. To be noted: Homo sapiens, read-out: 72-h MTT IC50, cervical adenocarcinoma. The procedure:
as §1
(§2) Representative compounds of this invention were examined for their anti-proliferative effect against human tumour cell lines and immortalized non-transformed human cell lines (“normal” cell lines).

For another data set, the system named is A549. In words: 72-h MTT assay A549. The data set is classed as cell-based. To be noted: Homo sapiens, read-out: 72-h MTT IC50, A549, lung carcinoma. The procedure: as §1, §2
In a further data set the test system is WI38. In words: 72-h MTT assay WI38. In kind it is cell-based. The settings on record: Homo sapiens, WI-38, 72 h, read-out: 72-h MTT IC50; WI38, normal foetal lung fibroblast. On the procedure:
as §1, §2

In another data set the test system is HT-29. In words: 72-h MTT assay HT-29. In kind it is cell-based. To be noted: Homo sapiens, read-out: 72-h MTT IC50, HT-29, colorectal adenocarcinoma. On the procedure:
as §1, §2

The subject of the next data set is Saos-2. In words: 72-h MTT assay Saos-2. In kind it is cell-based. To be noted: Homo sapiens, read-out: 72-h MTT IC50, Saos-2, osteosarcoma. On the procedure: as §1, §2
Another data set relates to Hs27. The experiment in a line: 72-h MTT assay Hs27. In kind it is cell-based. To be noted: Homo sapiens, read-out: 72-h MTT IC50, Hs27, normal foreskin fibroblast. On the procedure:
as §1, §2

A further data set has as its system IMR90. The experiment in a line: 72-h MTT assay IMR90. In kind it is cell-based. The settings on record: Homo sapiens, IMR-90, 72 h, read-out: 72-h MTT IC50; IMR90, normal embryo lung fibroblast. On the procedure:
as §1, §2

The subject of a further data set is normal cell lines. In words: 72-h MTT assay, mean of normal cell lines. The settings on record: Homo sapiens, read-out: 72-h MTT IC50. The data set is classed as cell-based. On the procedure:
as §1, §2

A further data set relates to cancer cell lines. In words: 72-h MTT assay, mean of cancer cell lines. To be noted: Homo sapiens, read-out: 72-h MTT IC50. In kind it is cell-based. The procedure: as §1, §2
A further data set concerns MCF7. The experiment in a line: 72-h MTT assay MCF7. The settings on record: Homo sapiens, read-out: 72-h MTT IC50, MCF7, mammary adenocarcinoma. In kind it is cell-based. On the procedure: as §1, §2
A short description of data set [4]: Comparative in vitro metabolism assay (microsomal incubation).
Experimental: as §4, §5, §6

Chain of CDK4/cyclin D1 (P11802 whole entry): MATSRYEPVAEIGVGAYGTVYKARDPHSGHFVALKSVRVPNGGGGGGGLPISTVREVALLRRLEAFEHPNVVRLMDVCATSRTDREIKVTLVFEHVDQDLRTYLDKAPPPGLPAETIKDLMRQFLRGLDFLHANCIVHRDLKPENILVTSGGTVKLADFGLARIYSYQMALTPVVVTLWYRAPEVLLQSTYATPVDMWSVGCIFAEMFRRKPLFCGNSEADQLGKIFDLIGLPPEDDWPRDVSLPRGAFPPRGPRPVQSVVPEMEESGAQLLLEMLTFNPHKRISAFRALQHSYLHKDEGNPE
Chain of CDK4/cyclin D1 (P24385 whole entry partner): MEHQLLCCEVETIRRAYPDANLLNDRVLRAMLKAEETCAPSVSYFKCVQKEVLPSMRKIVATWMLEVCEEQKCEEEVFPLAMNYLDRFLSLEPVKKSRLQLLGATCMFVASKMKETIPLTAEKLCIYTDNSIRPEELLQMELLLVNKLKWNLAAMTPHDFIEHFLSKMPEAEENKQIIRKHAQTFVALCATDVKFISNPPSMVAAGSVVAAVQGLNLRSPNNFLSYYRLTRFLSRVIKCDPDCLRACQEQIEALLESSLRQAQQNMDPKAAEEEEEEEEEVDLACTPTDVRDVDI
Chain of CDK1/cyclin B (P06493 whole entry): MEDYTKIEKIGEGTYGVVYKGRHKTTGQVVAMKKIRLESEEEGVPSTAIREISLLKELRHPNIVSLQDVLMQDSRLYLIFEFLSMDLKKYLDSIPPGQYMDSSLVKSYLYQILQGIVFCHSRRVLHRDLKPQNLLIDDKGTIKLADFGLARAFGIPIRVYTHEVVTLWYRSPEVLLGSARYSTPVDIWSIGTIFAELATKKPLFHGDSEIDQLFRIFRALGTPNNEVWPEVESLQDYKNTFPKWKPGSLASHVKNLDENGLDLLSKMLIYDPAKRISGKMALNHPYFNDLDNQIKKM
Chain of CDK1/cyclin B (P14635 whole entry partner): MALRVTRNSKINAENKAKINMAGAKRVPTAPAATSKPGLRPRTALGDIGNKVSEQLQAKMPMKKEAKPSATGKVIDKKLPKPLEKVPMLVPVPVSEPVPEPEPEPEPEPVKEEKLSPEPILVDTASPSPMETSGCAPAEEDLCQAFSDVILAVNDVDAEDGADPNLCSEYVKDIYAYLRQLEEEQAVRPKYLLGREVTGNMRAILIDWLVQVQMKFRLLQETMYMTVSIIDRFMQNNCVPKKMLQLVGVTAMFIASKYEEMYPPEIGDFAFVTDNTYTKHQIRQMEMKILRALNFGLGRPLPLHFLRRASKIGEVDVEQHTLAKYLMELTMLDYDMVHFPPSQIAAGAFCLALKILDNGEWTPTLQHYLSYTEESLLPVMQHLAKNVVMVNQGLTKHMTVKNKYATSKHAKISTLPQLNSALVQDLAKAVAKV
Chain of CDK7/cyclin H (P50613 whole entry): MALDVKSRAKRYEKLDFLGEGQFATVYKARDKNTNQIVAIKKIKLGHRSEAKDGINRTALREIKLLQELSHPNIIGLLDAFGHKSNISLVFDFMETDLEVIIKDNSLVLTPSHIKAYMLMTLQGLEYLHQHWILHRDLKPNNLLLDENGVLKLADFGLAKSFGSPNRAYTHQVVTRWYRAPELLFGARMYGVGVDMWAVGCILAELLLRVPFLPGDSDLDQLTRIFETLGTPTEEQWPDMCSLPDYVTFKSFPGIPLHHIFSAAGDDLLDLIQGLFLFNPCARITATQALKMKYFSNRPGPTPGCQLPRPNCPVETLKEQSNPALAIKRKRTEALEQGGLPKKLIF
Chain of CDK7/cyclin H (P51946 whole entry partner): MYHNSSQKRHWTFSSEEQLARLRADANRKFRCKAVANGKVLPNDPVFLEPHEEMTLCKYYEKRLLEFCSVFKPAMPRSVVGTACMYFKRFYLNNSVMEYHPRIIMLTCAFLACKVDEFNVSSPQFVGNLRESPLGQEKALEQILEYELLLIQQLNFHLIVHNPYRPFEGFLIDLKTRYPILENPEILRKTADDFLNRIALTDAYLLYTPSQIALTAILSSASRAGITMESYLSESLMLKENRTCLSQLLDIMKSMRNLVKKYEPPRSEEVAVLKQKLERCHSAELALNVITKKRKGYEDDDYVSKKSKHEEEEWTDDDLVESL
Chain of ERK-2 (P28482 whole entry, species assumed): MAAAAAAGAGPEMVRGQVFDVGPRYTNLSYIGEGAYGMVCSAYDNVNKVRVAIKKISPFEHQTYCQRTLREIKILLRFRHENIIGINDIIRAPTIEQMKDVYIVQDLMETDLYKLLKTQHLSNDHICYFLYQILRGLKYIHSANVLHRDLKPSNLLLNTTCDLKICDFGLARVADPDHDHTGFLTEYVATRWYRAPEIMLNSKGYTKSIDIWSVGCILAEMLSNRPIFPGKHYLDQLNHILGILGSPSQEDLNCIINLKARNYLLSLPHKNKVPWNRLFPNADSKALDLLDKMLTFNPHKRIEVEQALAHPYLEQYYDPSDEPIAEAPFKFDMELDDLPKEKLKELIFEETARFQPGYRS
Experimental for CDK1/cyclin B: as §3
Experimental for CDK2/cyclin E: as §3
Experimental for CDK4/cyclin D1: as §3
Experimental for CDK7/cyclin H: Reactions were stopped on ice, followed by filtration through p81 filterplates or GF/C filterplates (for CDK4) (Whatman Polyfiltronics, Kent, UK), except for CDK7 where, after stopping reaction on ice, 10 μL of 10 mg/mL avidin was added to each well and further incubated for 10 min followed by filtration as per CDK2 assay. After washing 3 times with 75 mM aq orthophosphoric acid, plates were dried, scintillant added and incorporated radioactivity measured in a scintillation counter (TopCount, Packard Instruments, Pangbourne, Berks, UK). Compounds for kinase assay were made up as 10 mM stocks in DMSO and diluted into 10% DMSO in assay buffer.
Experimental for ERK-2: as §3

`CC[C@@H](Nc1nc(NCc2cccnc2)c2ncn(C(C)C)c2n1)C(O)C(C)(C)C` (mixture of isomers) [(3RS,4R)-4-{9-Isopropyl-6-[(pyridin-3-ylmethyl)-amino]-9H-purin-2-ylamino}-2,2-dimethyl-hexan-3-ol]: the IC50 is 1 µM at CDK2/cyclin E; 1.6 µM at CDK7/cyclin H; 19 µM in data set [1]; above 200 µM in data set [2]; 51 µM at ERK-2; 24 µM at CDK4/cyclin D1. In addition, on CDK1/cyclin B, the IC50 came out at 23 µM.

As for `CC[C@@H](Nc1nc(NCc2cccnc2)c2ncn(C(C)C)c2n1)C(O)C(C)C` (mixture of isomers) [(3RS,4R)-4-{9-Isopropyl-6-[(pyridin-3-ylmethyl)-amino]-9H-purin-2-ylamino}-2-methyl-hexan-3-ol], the IC50 stood at 0.69 µM on CDK2/cyclin E; 2.2 µM on CDK7/cyclin H; 28 µM in data set [1]; 200 µM in [2]; 111 µM on ERK-2; 21 µM on CDK4/cyclin D1. Further, the IC50 at CDK1/cyclin B was 20 µM.

As for `CCC(O)[C@@H](CC)Nc1nc(NCc2cccnc2)c2ncn(C(C)C)c2n1` (mixture of isomers) [(3RS,4R)-4-{9-Isopropyl-6-[(pyridin-3-ylmethyl)-amino]-9H-purin-2-ylamino}-hexan-3-ol], the “A × B” value at CDK2/cyclin E was found to be 1.0. On CDK2/cyclin E, the “B: IC50 CDK2 roscovitine/IC50 CDK2 compound” value was 0.5. Moreover, the IC50 was 0.22 µM on CDK2/cyclin E; 1.1 µM on CDK7/cyclin H; 10 µM in data set [1]; above 200 µM in data set [2]; 37 µM at ERK-2; 25 µM at CDK4/cyclin D1. Moreover, on CDK1/cyclin B, the IC50 was determined as 12 µM. Also, the “% Drug after 30 min. microsomal incubation” value (from here on “% Drug”) in data set [3] is recorded as 70%. The “C: IC50 cytotox. roscovitine/IC50 cytotox. compound” value in data set [1] is 1.1.

As to `CC[C@H](Nc1nc(NCc2cccnc2)c2ncn(C(C)C)c2n1)C(O)C(C)(C)C` (mixture of isomers) [(3RS,4S)-4-{9-Isopropyl-6-[(pyridin-3-ylmethyl)-amino]-9H-purin-2-ylamino}-2,2-dimethyl-hexan-3-ol], the “A × B” value on CDK2/cyclin E worked out at 0.4. Also, the “B: IC50 CDK2 roscovitine/IC50 CDK2 compound” value on CDK2/cyclin E worked out at 0.3. Besides, the IC50 on CDK2/cyclin E was 0.39 µM; at CDK7/cyclin H it was 3.5 µM; in data set [1], 15 µM; in data set [2] it was above 200 µM; on ERK-2, 23 µM; at CDK4/cyclin D1, 13 µM. Further, on CDK1/cyclin B, the IC50 was determined as 21 µM. Moreover, in [3], the “% Drug” value amounted to 50%. In addition, the “C: IC50 cytotox. roscovitine/IC50 cytotox. compound” value in data set [1] turned out to be 0.8.

Turning to `CC[C@H](Nc1nc(NCc2cccnc2)c2ncn(C(C)C)c2n1)C(O)C(C)C` (mixture of isomers) [(3RS,4S)-4-{9-Isopropyl-6-[(pyridin-3-ylmethyl)-amino]-9H-purin-2-ylamino}-2-methyl-hexan-3-ol], the IC50 is 1.1 µM on CDK2/cyclin E; 3.5 µM at CDK7/cyclin H; 19 µM in data set [1]; above 200 µM in data set [2]; 67 µM on ERK-2; 31 µM on CDK4/cyclin D1. For the same compound, on CDK1/cyclin B, the IC50 worked out at 22 µM.

On to `CCC(O)[C@H](CC)Nc1nc(NCc2cccnc2)c2ncn(C(C)C)c2n1` (mixture of isomers) [(3RS,4S)-4-{9-Isopropyl-6-[(pyridin-3-ylmethyl)-amino]-9H-purin-2-ylamino}-hexan-3-ol], for which, on CDK2/cyclin E, the “A × B” value is on record as 2.1. Also, on CDK2/cyclin E, the “B: IC50 CDK2 roscovitine/IC50 CDK2 compound” value stood at 1.0. Further, the IC50 was 0.11 µM at CDK2/cyclin E; 1.5 µM at CDK7/cyclin H; 5.5 µM in data set [1]; above 200 µM in [2]; 17 µM at ERK-2; 11 µM on CDK4/cyclin D1. Also, the IC50 at CDK1/cyclin B was 13 µM. In data set [3], the “% Drug” value came out at 73%. Moreover, the “C: IC50 cytotox. roscovitine/IC50 cytotox. compound” value in data set [1] is recorded as 2.1.

Consider `CC[C@H](Nc1nc(NCc2cccnc2)c2ncn(C(C)C)c2n1)[C@@H](C)O` [(2R3S)-3-{9-Isopropyl-6-[(pyridin-3-ylmethyl)-amino]-9H-purin-2-ylamino}-pentan-2-ol], for which the IC50 in the data set with HeLa was 1.4 ± 0.2 µM; in the data set on A549 it was 0.9 ± 0.1 µM; in data set [1], 0.8 µM; in the data set with WI38, 6.1 ± 0.3 µM; in data set [2] it was above 200 µM; on ERK-2 it was 20 µM. Further, the IC50 was 2.2 µM at CDK1/cyclin B; 1.1 ± 0.2 µM with HT-29; 1.2 ± 0.2 µM in the data set with Saos-2; 5.9 ± 0.3 µM with Hs27; above 20 µM with IMR90; above 10 µM with normal cell lines. The IC50 was 1.1 ± 0.3 µM in the data set on cancer cell lines and 0.7 ± 0.1 µM in the data set on MCF7. In addition, the “A × B” value at CDK2/cyclin E amounted to 7.5. Moreover, the “% Drug” value in data set [3] came to 67%.

Consider `CC[C@@H](Nc1nc(NCc2cccnc2)c2ncn(C(C)C)c2n1)[C@H](C)O` [(2S3R)-3-{9-Isopropyl-6-[(pyridin-3-ylmethyl)-amino]-9H-purin-2-ylamino}-pentan-2-ol], for which the IC50 was 2.9 ± 0.2 µM in the data set with HeLa; 2.1 ± 0.4 µM in the data set on A549; 1.5 µM in [1]; 11.2 ± 1.2 µM in the data set with WI38; above 200 µM in [2]; 23 µM at ERK-2. The IC50 at CDK1/cyclin B was 4.9 µM; with HT-29, 2.3 ± 0.6 µM; in the data set with Saos-2, 2.8 ± 0.1 µM; in the data set with Hs27 it was 10.2 ± 0.6 µM; in the data set with IMR90, above 20 µM; in the data set on normal cell lines, above 10 µM. Further, the IC50 in the data set with cancer cell lines was determined as 2.3 ± 0.5 µM; with MCF7 it was 1.6 ± 0.2 µM. Moreover, the “A × B” value on CDK2/cyclin E is 3.1. For the same compound, the “% Drug” value in data set [3] is reported as 90%.

On to `CC[C@@H](Nc1nc(NCc2cccnc2)c2ncn(C(C)C)c2n1)C(C)(C)O` [(3R)-3-{9-Isopropyl-6-[(pyridin-3-ylmethyl)-amino]-9H-purin-2-ylamino}-2-methyl-pentan-2-ol], for which the “A × B” value at CDK2/cyclin E is 1.3. In addition, the “B: IC50 CDK2 roscovitine/IC50 CDK2 compound” value at CDK2/cyclin E stood at 0.5. For the same compound, the IC50 at CDK2/cyclin E is 0.2 µM; on CDK7/cyclin H, 3.1 µM; in [1] it was 5.6 µM; in data set [2], above 200 µM; on ERK-2, 91 µM; on CDK4/cyclin D1 it was 7.5 µM. Also, at CDK1/cyclin B, the IC50 stood at 6.2 µM. Moreover, the “% Drug” value in data set [3] turned out to be 84%. The “C: IC50 cytotox. roscovitine/IC50 cytotox. compound” value in data set [1] was 2.1.

`CC[C@H](CO)Nc1nc(NCc2ccccc2)c2ncn(C(C)C)c2n1` [Roscovitine, roscovitine]: the “% Drug” value in data set [4] (10 μM compound, 30 min, microsomal protein 0.2 mg, NADPH) is given as 33%. The “A: % Compound remaining/% roscovitine remaining” value in [4] (ratio to roscovitine) is given as 1.0.
